Marks after values point to notes of the source that are not given here.
What was measured:
E. coli = assay: colibacillosis infection model in broiler chickens, Trial A (Example 78); format: in vivo, chicken; conditions: 2 μg/chick subcutaneous
chicken leukocytes = assay: cells; format: cell-based; conditions: for minimal effective concentration: Gallus gallus, Leukocyte, read-out: MSC (Minimum Stimulatory Concentration)
Method: Various compounds of Formula I were evaluated for in vitro T-lymphocyte blastogenic activity with chicken leukocytes according to the steps described in the following procedure:
(a) Exsanguination step. The leukocytes were obtained from 3-6 week old Hubbard/Peterson broiler chickens. Initially, the chickens were rendered unconscious in a CO2 chamber. The chickens were then exsanguinated via cardiac puncture. In the exsanguination procedure, a syringe was connected to a needle, and the needle was inserted into the area at the base of the neck under the “V” formed by the breast and sternum. After the needle was properly inserted, continuous vacuum was applied to a syringe (connected to the needle) by pulling back on the plunger. It is important to promptly carry out this withdrawal action, because there is only a 10-15 seconds time period after the blood has starting flowing into the syringe before the blood coagulates, and becomes unusable. As soon as the syringe is full (or prior to complete filling if too much time has elapsed such that the blood begins to coagulate), the whole uncoagulated blood is transferred to a tube having the anticoagulant EDTA therein. The tube is then rotated to mix the whole blood and the EDTA. Alternatively, the whole blood can be withdrawn directly into a vacuum container already having EDTA therein, rather than into a syringe.
(b) Leukocyte isolation step. Numerous methods for isolating leukocytes from (uncoagulated) whole blood are known in the art. In a preferred method, the sterile whole blood was combined with methylcellulose (1.5:1). Any blood containing clots was discarded. The mixture was centrifuged at 30×g for ten minutes (300 rpm on Beckman GS-6R centrifuge). The top layer (leukocytes in supernatant) was decanted into a sterile 50 ml conical tube, while taking care to prevent contamination of the sample by red blood cells. The decanted layer was then centrifuged at 200×g for ten minutes (1500 rpm on the Beckman GS-6R centrifuge). The supernatant liquid was discarded, and the resulting cell “pellet” was retained.
The cells were then washed in a solution containing 10 ml PBS (phosphate buffered saline) and Gentamycin (gentamicin sulfate) at a concentration of 50 μg/ml. This solution was centrifuged at 100×g (1000 rpm on the Beckman centrifuge) for five minutes, and the supernatant liquid was discarded. The washing step (including the centrifuging at 100×g) was repeated to ensure complete removal of the methylcellulose. The use of media such as DMEM ([…]) was avoided in the washing steps, since such media may cause agglutination of the white blood cells. Finally, the cells were then suspended in an appropriate media, such as RPMI 1640 tissue cell culture medium, supplemented with phenol red, NaHCO3, and L-Glutamide. Supplemented RPMI 1640 is available from Sigma-Aldrich Chemical Co.
(c) Cell counting and cell viability step. The cells were counted and checked for viability using the Trypan Blue method of exclusion. 0.1 ml of the cell suspension was placed in a 4-5 ml small culture tube along with 0.7 ml HBSS (Hank's Buffered Saline Solution), available from Sigma-Aldrich, and 0.2 ml of a 0.4% solution of aqueous Trypan Blue stain, available from GIBCO BRL, of Grand Island, N.Y. The components were mixed thoroughly but gently, and allowed to sit for 5 minutes (no longer than 15 minutes). The components should not be exposed to the stain for extended periods of time, because such extended exposure may permit viable cells, as well as non-viable cells, to take up dye.
A cover slip was placed on a Bright Line hemacytometer, available from Howser Scientific, and 10 μl of the mixture from the tube was transferred to each chamber. Non-viable cells appear blue under a microscope. The viable cells in one of the 16-square corners of the hemacytometer were then counted. […]

E. coli 19B = assay: bacterial clearance of E. coli from peripheral blood of neonatal chicks (Example 77); format: in vivo, chick; conditions: single subcutaneous injection of 25 μg, E. coli challenge, blood 14-18 hours post-challenge
Method: The compounds of Example 15 ((S)-ethyl 1-benzoyl-3-piperidinecarboxylate), Example 29 (1-benzoyl-3-butyrylpiperidine), Example 30 ((S)-ethyl 1-(2-thiopheneacetyl)-3-piperidinecarboxylate) and Example 68 ((S)-ethyl 1-benzyl-3-piperidinecarboxylate 1-methiodide), respectively, were tested to determine whether a single subcutaneous injection enhanced the bacterial clearance of E. coli from the peripheral blood of neonatal chicks. Bacterial clearance is a measurement of cell-mediated immunity, specifically, phagocyte function, in animals. An approved Animal Care and Use Committee protocol governed the activity in this experiment.
1 ml syringes with 21 g 1″ needles (Becton Dickinson and Company Franklin Lakes, N.J. 07417-1884); 1 ml syringe with 25 g ⅝″ needles (Becton Dickinson and Company Franklin Lakes, N.J. 07417-1884); EMB agar plates (Difco Laboratories, Becton Dickinson Microbiology Systems, Sparks, Md. 21152); Culture tubes (14 ml polystyrene round bottom, Becton Dickinson Labware, Franklin Lakes, N.J. 07417-1886); Dulbecco's Phosphate Buffered Saline w/o Mg^++ or Ca^++ (Gibco BRL, Life Technologies Rockville, Md. 20850). Peterson x Hubbard male chicks (day of hatch from a commercial hatchery) were utilized
160 chicks were divided into 6 groups: Group 1=Controls (acetate-buffered saline vehicle); Group 2=Compound of Example 15 ((S)-ethyl 1-benzoyl-3-piperidinecarboxylate); Group 3=Compound of Example 29 (1-benzoyl-3-butyrylpiperidine); Group 4=Compound of Example 30 ((S)-ethyl 1-(2-thiopheneacetyl)-3-piperidinecarboxylate); Group 5=Compound of Example 68 ((S)-ethyl 1-benzyl-3-piperidinecarboxylate 1-methiodide); and Group 6=environmental controls. Groups 1-5 contained 3 replicates of 10 chicks each and Group 6 contained 1 replicate of 10 chicks.
Day −2 Upon arrival, day of hatch chicks were randomized (10/group), and placed in a Petersime heated brooder battery unit (Petersime Incubator Company, Gettysburg, Ohio 45328). […] All chicks were given ad libitum access to a commercially available starter feed and water.
Day 0 11:00 AM. Five to ten colonies of E. coli 19B were selected from a fresh overnight blood agar plate (TSA II with 5% sheep blood, Becton Dickinson Microbiology Systems Cockeysville, Md. 21030) and placed into 100 ml Brain Heart Infusion broth (Difco Laboratories, Becton Dickinson Microbiology Systems Sparks, Md. 21152) in a flask. […]
Day 5 EMB plates were removed from the incubator and bacterial colonies were counted and recorded to calculate CFU/ml/chick.
Data was transformed to logio values, and analysis of variance was used to determine significant differences between the treatment groups and controls. Data was expressed as the percentage of enhancedbacterial clearance compared to E. coli-challenged controls. […]

[1] = chicken leukocytes, read at 72 hours
[2] = Hubbard/Peterson broiler, chicken, 72 h

Compound	minimal effective concentration (chicken leukocytes; [1]) [µg/mL]	MTC (Maximum Tolerable Concentration prior to causing cytotoxicity) (chicken leukocytes; [2]) [µg/mL]	MSC (Minimum Stimulatory Concentration) (chicken leukocytes; [1]) [µg/mL]	also measured
CCOC(=O)C1CN(C(=O)NC)CCC1=O (centres unmarked) [Example 11, Ethyl 1-(N-Methylaminocarbonyl)-4-oxo-3-piperidinecarboxylate]	0.001	1	–	% Colibacillosis-associated Mortality (E. coli): 14.0%; % Total Mortality (E. coli): 16.5* %; Average Weight Gain/Bird (E. coli): 1.40 lb (635 g); Feed/Gain (E. coli): 1.35
CCOC(=O)[C@H]1CCCN(C(=O)c2ccccc2)C1 [Example 15, (S)-Ethyl 1-Benzoyl-3-piperidinecarboxylate]	0.1	10	–	% Enhanced Clearance Compared to Controls (E. coli 19B): 34* %
CCCC(=O)C1CCCN(C(=O)c2ccccc2)C1 (centres unmarked) [Example 29, 1-Benzoyl-3-butyrylpiperidine]	1	10	–	% Enhanced Clearance Compared to Controls (E. coli 19B): 33* %
O=C(O)[C@H]1CCCN(C(=O)c2ccccc2)C1 [Example 50, (S)-1-Benzoyl-3-piperidinecarboxylic Acid]	1	10	–	–
COC(=O)[C@H]1CCCN(C(=O)c2ccccc2)C1 [Example 52, (S)-Methyl 1-Benzoyl-3-piperidinecarboxylate]	0.1	10	–	–
CCCOC(=O)[C@H]1CCCN(C(=O)c2ccccc2)C1 [Example 53, (S)-Propyl 1-Benzoyl-3-piperidinecarboxylate]	1	10	–	–
CCOC(=O)[C@H]1CCCN(CCCc2cccs2)C1 [Example 54, (S)-Ethyl 1-(2-Thienylpropyl)-3-piperidinecarboxylate]	1	10	–	–
CCOC(=O)C1CC(C)CN(C(=O)Cc2cccs2)C1 (centres unmarked) [Example 57, Ethyl 1-(2-Thiopheneacetyl)-5-methyl-3-piperidinecarboxylate]	10	10	–	–
O=C(Cc1cccs1)N1CCC[C@H](CO)C1 [Example 59]	–	–	10	MTC (Maximum Tolerable Concentration prior to causing cytotoxicity) (chicken leukocytes; [1]): 100 µg/mL
CCOC(=O)C1CN(C(=O)Cc2cccs2)CCC1C (centres unmarked) [Example 62, Ethyl 1-(2-Thiopheneacetyl)4-methyl-3-piperidinecarboxylate]	1	10	–	–
O=C[C@H]1CCCN(C(=O)Cc2cccs2)C1 [Example 63, (S)-1-(2-Thiopheneacetyl)-3-piperidinecarboxaldehyde]	1	10	–	–
N#C[C@H]1CCCN(C(=O)Cc2cccs2)C1 [Example 64, (S)-1-(2-Thiopheneacetyl)-3-piperidinonitrile]	1	10	–	–
CCOC(=O)C1CCC[N@+](C)(Cc2ccccc2)C1.[I-] (stereo partly drawn) [Example 68, (S)-Ethyl 1-Benzyl-3-piperidinecarboxylate 1-methiodide]	–	–	1	% Enhanced Clearance Compared to Controls (E. coli 19B): 50* %
CN(C)C(=O)C1CCC[N@+](C)(Cc2ccccc2)C1.[I-] (stereo partly drawn) [Example 71, (S)-N,N-Dimethyl 1-Benzyl-3-piperidinecarboxamide 1-methiodide]	–	–	0.1	–
(S)-Ethyl 1-(2-Thiazyl)-3-piperidinecarboxylate 1-methiodide [Example 73]	–	–	1	–
Ethyl 1-(2-Bromobenzoyl)-2-acetylpiperidinecarboxylate [Example 45]	–	–	1	–
